{
  "source": "patent US12213984B2",
  "about": "“Immunoregulatory agent” (KYUSHU UNIVERSITY, NATIONAL UNIVERSITY CORPORATION, priority 2015, dated 2025)",
  "key": {"DOCK2": {"biological_target": "T1, DOCK2 (Homo sapiens, UniProt Q92608)", "T1 construct": "polypeptide fragments corresponding to a DHR-2 domain including the lobe B and the lobe C of DOCK2; Histidine-SUMO (N); made in house; host or cells: E. coli Arctic express DE3 (pET28a); Rac in E. coli BL21 DE3 (pGEX-6P-1)", "T1 sequence (Q92608 1196-1622)": "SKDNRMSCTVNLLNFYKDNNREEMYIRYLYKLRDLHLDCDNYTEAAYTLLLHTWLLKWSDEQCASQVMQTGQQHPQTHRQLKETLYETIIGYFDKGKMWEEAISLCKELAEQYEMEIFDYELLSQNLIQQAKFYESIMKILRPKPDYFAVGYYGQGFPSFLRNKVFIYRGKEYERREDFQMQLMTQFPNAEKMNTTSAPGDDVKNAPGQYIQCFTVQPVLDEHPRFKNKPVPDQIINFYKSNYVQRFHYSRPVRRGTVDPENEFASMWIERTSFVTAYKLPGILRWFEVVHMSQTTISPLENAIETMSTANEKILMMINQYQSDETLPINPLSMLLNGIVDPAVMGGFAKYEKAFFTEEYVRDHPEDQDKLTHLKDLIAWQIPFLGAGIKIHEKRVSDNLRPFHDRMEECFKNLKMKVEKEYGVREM", "test": "in-vitro GEF assay, Rac activation by DOCK2 (Experimental Example 1)", "type": "biochemical", "description": "The selectivity of the effect of inhibiting the GEF of DOCK2 by cholesterol 3-sulfate was examined. All of DOCK2, Trio, and Tiam are GEFs activating Rac. In the presence of serially diluted cholesterol 3-sulfate, the Rac activation ability of a DOCK2 protein, a Trio protein, and a Tiam protein was measured by in-vitro GEF assay. For the in-vitro GEF assay, a labeled GTP (trade name, “Bodipy-FL-GTP”, manufactured by Invitrogen) was used, because it has a property of increasing fluorescence intensity when binds to Rac by the action of GEF. […]\nDuring the reaction, the change in the fluorescence intensity of Bodipy-FL-GPT was monitored using a spectrofluorometer Enspire manufactured by PerkinElmer Inc (excitation wavelength: 488 nm, emission wavelength: 514 nm). By calculation, the values obtained by the measurement were corrected such that the fluorescence intensity became 0 at a reaction starting point (0 second).\nThen, by using software (trade name “GraphPad Prism 5”, manufactured by GraphPad Software Inc.), an approximation curve was created which is obtained in a case where the calculated corrected values are plotted on the y-axis and time (t) is plotted on the x-axis. […]"}, "[1]": {"biological_target": "T2, DOCK2DHR-2 (lobe B and lobe C of the DHR-2 domain of DOCK2) (Homo sapiens, UniProt Q92608)", "T2 construct": "polypeptide fragments corresponding to a DHR-2 domain including the lobe B and the lobe C of DOCK2; Histidine-SUMO (N); made in house; host or cells: E. coli Arctic express DE3 (pET28a); Rac in E. coli BL21 DE3 (pGEX-6P-1)", "T2 sequence (Q92608 1196-1622)": "T1 sequence (Q92608 1196-1622)", "test": "in-vitro GEF assay, Rac activation by DOCK2 DHR-2 domain with various steroid compounds (Experimental Example 2)", "type": "biochemical", "settings": "IC50 against the Rac activation by DOCK2DHR-2, Experimental Example 2, Table 1", "description": "An examination was performed using various steroid compounds to test their effects on the Rac activation induced by proteins composed of the lobe B and the lobe C of the DHR-2 domain of DOCK2.\nAs the steroid compounds, cholesterol 3-sulfate (hereinafter, referred to as “C3S” in some cases), cholesterol, cholesterol 3-acetate (hereinafter, referred to as “C3A” in some cases), pregnenolone 3-sulfate (hereinafter, referred to as “PREG3S” in some cases), dehydroepiandrosterone (hereinafter, referred to as “DHEA” in some cases), dehydroepiandrosterone 3-sulfate (hereinafter, referred to as “DHEA3S” in some cases), estrone 3-sulfate (hereinafter, referred to as “Estrone3S” in some cases), estriol 3-sulfate (hereinafter, referred to as “Estriol3S” in some cases), and estradiol 3-sulfate (hereinafter, referred to as “Estradiol3S” in some cases) were used.\nMore specifically, a DOCK2-DHR-2 domain protein prepared by the same method as described above was incubated for 20 minutes at room temperature in the presence of various steroid compounds at a predetermined concentration dissolved in DMSO or in the presence of DMSO alone (control) under the shielded condition from light, thereby preparing a pretreated substance of GEF. The concentration of DMSO was adjusted such that it became 3% (1% in the final reaction solution) in all samples. Then, by in-vitro GEF assay in which Rac and Bodipy-FL-GTP prepared by the same method as described above were used, Rac activation by the DHR-2 domain was measured."}},
  "data": [
    {"smiles": "CC(C)CCC[C@@H](C)[C@H]1CC[C@H]2[C@@H]3CC=C4C[C@@H](OS(=O)(=O)O)CC[C@]4(C)[C@H]3CC[C@]12C", "note": "[C3S, cholesterol 3-sulfate]", "values": [
      {"measurement": "IC50", "setting": "DOCK2", "value": 6.7, "unit": "µM"},
      {"measurement": "IC50", "setting": "[1]", "value": 2, "unit": "µM"}
    ]}
  ]
}
